For one data set, the system named is DNA. Particulars: cited from earlier work.
Data set [1] is described as follows: Tolerance in subungual and periungual application. It counts as in vivo. From the text:
(§1) Its tolerance in subungual and periungual application is good and perfectly compatible with the desired therapeutic effect.

Data set [2] can be described thus: Irritation of eyes and mucous membranes. It counts as in vivo. Particulars: pure or concentrated GBL.
Source text: as §1

The next data set relates to rat. The note with it: by mouth; cited from earlier work.

Each structure is given as a SMILES string.

For the molecule `O=C1CCCO1` [GBL, gamma-butyrolactone], the “alteration of DNA” value in the data set on DNA was “no alteration of DNA”. Further, in data set [1], the “tolerance in subungual and periungual application” value was “good”. Moreover, the “irritation of eyes and mucous membranes” value in data set [2] is “irritating to the eyes and the mucous membranes”. Moreover, the LD50 in the data set with rat is 17.2 mL/kg.

Values taken from US20180185490A1 (R&D PHARMA, priority 2017, published 2018).
